Patent publication US6525098B1, “6-methoxy-2-naphthylacetic acid prodrugs” (Nobex Corporation, priority 1999, dated 2003)

Key:
rat paw edema = assay: rat paw edema; format: in vivo
[1] = oral administration; cited from earlier work
[2] = analysis of blood samples / plasma levels in rats after oral delivery; format: in vivo
Excerpt: FIG. 1 is a graph of in plasma levels of Example 1 compared to Nabumetone.

| Structure (SMILES) | rat paw edema, % inhibition (rat paw edema) | fraction of orally administered nabumetone transferred in vivo into 6MNA [1] | melting point | plasma levels and onset compared to Nabumetone (FIG. 1) [2] |
| --- | --- | --- | --- | --- |
| COc1ccc2cc(CCC(C)=O)ccc2c1 [Nabumetone, nabumetone, reference compound] | 60.0% | about 35% |  |  |
| COc1ccc2cc(CCO)ccc2c1 [Example 1, 2-(6-Methoxy-naphthalen-2-yl)-ethanol] | 67.5% |  | 110 to 113 °C | higher plasma levels, with more rapid onset |
